Measured values reported in patent publication US11807852B2, “Compositions and methods for reactivating latent immunodeficiency virus” (The J. David Gladstone Institutes, a testamentary trust …, priority 2014, dated 2023).
“Also recorded” adds a separate entry of the source.

What was measured:
[1] = system: A2 J-Lat cells, A72 J-Lat cells, and primary CD4+ T cells; assay: ApoTox-Glo Triplex Assay: viability, cytotoxicity, caspase-3/7; type: cell-based; settings: A2, A72 J-Lat cells and primary CD4+ T cells from 2 blood donors
Protocol: FIGS. 22A-D provide data showing the viability, cytotoxicity and apoptosis of cells treated with SMYD2 inhibitor X2. ApoTox-Glo™ Triplex Assays (Promega) were performed in AZ391-treated A2 J-Lat cells (A), A72 J-Lat cells (B), and primary CD4^+ T cells from 2 independent blood donors (C) and (D). […] All measurements were repeated at least three times and an average of one experiment of three technical replicates (±SD) is shown.

[2] = system: J-Lat cells (clone A2: LTR-Tat-IRES-GFP); type: cell-based
Protocol: To test this hypothesis, J-Lat cells (clone A2: LTR-Tat-IRES-GFP) were treated with SMYD2 inhibitors. […] Both cell lines were co-treated with X2 and Ingenol 3,20-dibenzoate (a protein kinase C (PKC) activator), JQ1 (BET-bromodomain inhibitor), or the histone deacetylase (HDAC) inhibitor suberoylanilidehydroxamic acid (SAHA).

[3] = system: latent HIV-1 in primary CD4+ T cells; assay: Primary T-cell model of HIV latency (Greene model), NL4-3-Luc luciferase; type: cell-based
Protocol: Peripheral blood mononuclear cells (PBMC) were isolated by Ficoll-Hypaque density gradient centrifugation of buffy coats from HIV-seronegative donors (Blood Centers of the Pacific). PBMCs were immediately processed to isolate CD4^+ T cells. Total CD4^+ T cells were isolated by negative selection, according to manufacturer's protocol, with the EasySep CD4^+ T-cell Enrichment Kit (Stem Cell Technologies). Isolated CD4^+ T cells were cultured in RPMI as described above at a concentration of 1×10^6 cells/ml for 24 h before HIV infection.
CD4^+ T cells were counted, collected as pellets by centrifugation at 1500 rpm for 5 min at room temperature, and resuspended in the appropriate volume of concentrated viral NL4-3-Luc supernatant. Typically, 50-200 ng of p24Gag per 4×10^5 CD4^+ T cells were used. Spinoculations with NL4-3-Luc virus were performed in 96-well V-bottom plates with up to […] HLAC or CD4 T cells per well. All spinoculations were performed in volumes of 200 μl or less. Cells and virus were centrifuged at 2000 rpm for 1.5-2 h at room temperature. After spinoculation, cells were pooled and cultured at a concentration of 1×10^6 cells/ml in RPMI 1640 containing 10% FBS and supplemented with 5 μM saquinavir for 3 days to prevent residual spreading infection. Saquinavir was purchased from Sigma.
For reactivation of latent HIV-1 provirus, cells were counted and collected as pellets by centrifugation at 1500 rpm for 10 min. Cells were then plated in 96-well U-bottom plates at concentrations of 1×10^6/200 μl in the presence of the indicated activator. Unless otherwise indicated, cells were cultured either in medium alone or stimulated with 5 μg/ml phytohemagglutinin (PHA) (Sigma), 10 ng/ml TNF-α, anti-CD3+anti-CD28 beads at a ratio of 1:1. SAHA, JQ1 and X2 were tested at the indicated concentrations. Cells were harvested 48 hr after stimulation, washed one time with PBS, and lysed in 60 μl of Cell Lysis Buffer (Promega). After 15 min of lysis, the luciferase activity in cell extracts was quantified with a BD Monolight Luminometer after mixing 20 μl of lysate with 100 μl of substrate (Luciferase Assay System-Promega). Relative light units were normalized to protein content determined by BCA assay (Pierce). Cell survival rates were measured by flow cytometry immediately before lysis.
Since X2 activated HIV from latency in A2 and A72 cell lines, this compound was tested in a primary T-cell model of latency (Lassen, Greene). In this model, CD4+ T cells were infected in a single-round infection with HIV clone NL4-3-Luc to generate a latent infection in vitro. To reactivate latent HIV-1, cells were treated with the indicated compounds or a combination of PHA/IL-2 as a control for maximal activation. X2 in combination with JQ1 reactivated latent HIV-1 at 8-25% of the rate achieved by costimulation with PHA/IL-2 (FIG. 9). X2 in combination with Ingenol 3,20-dibenzoate reactivated latent HIV-1 at 30-85% of the rate achieved by costimulation with PHA/IL-2 (FIG. 10).

[4] = system: CD4+ T cells from HIV-1-infected individuals; assay: T-cell activation markers CD69 and CD25, flow cytometry; type: cell-based, human; settings: at the indicated concentrations (up to 500 nM)
Description: FIGS. 15 A-G depict the structural formulae for AZ505, AZ506, and AZ391, and the reactivation of latent HIV-1 with SMYD2 inhibitor X2 (AZ391) in CD4^+ T cells from HIV-1 infected individuals. (A) Structures of each compound are shown. (B) Intracellular HIV-1 mRNA levels in CD4^+ T cells, obtained from an infected individual (#1036) and treated ex vivo with AZ391, JQ1 or a combination of both, in indicated concentrations, presented as fold induction relative to DMSO control. Activation with αCD3/αCD28-Dynabeads was performed as control. (C) Flow cytometry of T-cell activation markers CD69 and CD25 in the same experiment. For each treatment group, CD69^+ (left) and CD25^+ (right). Shown as percentage of positive cells relative to αCD3/αCD28-treated cells (D) Cell viability as measured by CellTiter-Blue® Cell Viability assay (Promega) and Zombie Violet Fixable Viability kit (BioLegend) and presented as percentage of DMSO control treated cells. Data points indicate average of three technical replicates of donor #1036. (E-G) Same experiments as in b-d but performed with CD4^+ T cells obtained from three additional individuals (2013, 2185, 2511) with a single concentration of AZ391 (500 nM). In f and g, average of the three biological replicates (±SD) is show. For (F), for each treatment group, CD69^+ (left) and CD25^+ (right). […]

N#Cc1cc(C(=O)NCCCN2CCCC2)cc(-c2ccccc2N2CCN(CCc3c[nH]c4ccccc34)CC2)c1 [AZ391]
viability, cytotoxicity and caspase-3/7 activity [1]: reduced cell viability and increased cytotoxicity and caspase-3/7 activity at concentrations above 5 μM; also recorded: did not reduce viability nor increase cytotoxicity and caspase-3/7 activity at concentrations lower than 5 μM | GFP-expressing cells compared with control-treated cells ([2]; A2 J-Lat cells): up to threefold more GFP-expressing cells than control-treated cells | activation of HIV transcription / reactivation of the HIV-LTR (GFP) ([2]; A2 J-Lat cells, single agent): activated HIV transcription in a dose-dependent manner | cell death ([2]; at the concentration that effectively activated HIV transcription): slight increase in cell death | reactivation of latent HIV-1 as % of the rate achieved by costimulation with PHA/IL-2 ([3]; in combination with Ingenol 3,20-dibenzoate): 30-85% | reactivation of latent HIV-1 as % of the rate achieved by costimulation with PHA/IL-2 ([3]; in combination with JQ1): 8-25% | reactivation of latent HIV-1, synergy ([3]; with JQ1): synergy | reactivation of latent HIV-1, combination effect ([3]; with SAHA, listed as X2): modest activation; also recorded: minimal synergy | reactivation of latent HIV-1, synergy ([3]; with ingenol 3,20-dibenzoate): synergy | global T-cell activation (CD69, CD25) [4]: No increase in global T-cell activation
